This passage reports TT dimer levels results from patent US20100297042A1, “Cosmetic Compositions and Methods Comprising Rhodiola Rosea” (priority 2004, published 2010).

The structures appear in SMILES notation.

The experiment concerns living skin equivalents (LSE). In words: TT dimer immunostaining (DNA damage/repair) in UVB-irradiated living skin equivalents. It counts as cell-based. As to conditions: pre-treated 0.01% (PBS) 18 hours; 24 hours after 175 mJ of UVB. The method, then: Excised portions (8 mm) are taken from living skin equivalents (LSE) and cultured over transwell membrane plates. These excised portions are pre-treated with rosavin or salidroside at 0.01% (PBS) for 18 hours. After the […], these excised portions are UVB-irradiated at 0 and 175 mJ/cm^2. One set of LSEs is immediately fixed in formalin to determine TT dimer formation (DNA damage). Following a 24-hour post-incubation, another set of skin equivalents is fixed in formalin. These samples are then prepared for TT dimer immunostaining. Sections are then evaluated using a microscope at 400× magnification. A section is selected from each sample and TT dimer containing cells are evaluated. DNA damage is measured by examining TT dimer stained cells immediately after UVB irradiation. DNA repair (TT dimer removal) in UVB-irradiated LSEs is determined by comparing the levels of TT dimer at 0 hr (immediately after UVB) with the levels of TT dimer at 24 hours (24 hours after UVB).

For `O[C@@H]1[C@@H](O)[C@@H](OC/C=C/c2ccccc2)O[C@H](CO[C@@H]2OC[C@H](O)[C@H](O)[C@H]2O)[C@H]1O` [rosavin, cinnamyl alcohol vicyanoside rosavin], the TT dimer levels is reported as 7%.
For `OC[C@H]1O[C@@H](OCCc2ccc(O)cc2)[C@H](O)[C@@H](O)[C@@H]1O` [salidroside, hydroxyphenylethanol-2-D-glucopyranoside] the value was 12%.
